Measurements reported in patent US20250186600A1, “EXCIPIENT COMPOUNDS FOR PROTEIN FORMULATIONS” (Comera Life Sciences, Inc., priority 2020, published 2025).
Where “and” joins values, the source holds several entries; their conditions need not be identical. Identical values can stand only once. Counter-ions that a name gives are not always drawn. Values belong to the compound of their own block, whether it stands above or below them.

Key:
infliximab = assay: Thermal degradation assay at 55° C., normalized monomer loss rate by HP-SEC (Example 51); format: physicochemical; conditions: infliximab about 2 mg/mL, 20 mM phosphate pH 7, 55° C.
Method: ® infliximab was obtained from the Clinigen Group and reconstituted according to the instructions in the Janssen package insert, resulting in a 10 mg/mL infliximab solution in 5 mM phosphate buffer, pH about 7, with 50 mg/mL sucrose and 0.05 mg/mL polysorbate 80. The reconstituted drug product was then combined 1:1 by volume with 50 mM sodium acetate buffer at pH 5. The resulting solution was then injected onto a small preparative scale cation exchange column (GE Healthcare, Chicago, IL). After the infliximab was loaded onto the column, the column was washed with 10 column volumes of 50 mM sodium acetate buffer, pH 5. The infliximab was then eluted from the column with five column volumes of a 250 mM sodium chloride, 50 mM sodium acetate buffer at pH 5. […] Stock solutions of either 4 or 8 mg/mL infliximab in 20 mM phosphate buffer at pH 7 were then used in subsequent tests.
All excipients used in this Example, listed in Table 52 below, were of the highest purity, and were obtained from Sigma Aldrich (St. Louis, MO) or Cayman Chemical (Ann Arbor, MI). The stock infliximab solutions were mixed with stock excipient solutions containing the excipients listed in Table 52 formulated in 20 mM phosphate buffer, pH 7 to achieve a final infliximab concentration of about 2 mg/mL in each sample. The samples containing the infliximab solutions and the stock excipient solutions were then aliquoted into five 100 μL aliquots in PCR tubes. […] These stressed samples were then analyzed for monomer content by high performance size exclusion chromatography (HP-SEC) using an Agilent 1100 series HPLC equipped with a diode array detector monitoring absorbance at 280 nm. […] For each sample, the monomer peak area was divided by the monomer peak area obtained from an identical but unstressed sample to obtain the percent monomer remaining after exposure to thermal stress. The remaining monomer as a percentage of the unstressed sample was then plotted as a function of incubation time and the absolute value of the slope of a linear fit to the data was recorded as the monomer loss rate.

[1] = tested on: bovine gamma globulin (BGG); assay: Normalized viscosity of BGG with caffeine and a secondary excipient (Example 40); format: physicochemical; conditions: Excipient A caffeine 15 mg/mL + Excipient B 20 mg/mL; BGG about 280 mg/mL, 20 mM histidine pH 6, 25° C.
ustekinumab [2] = assay: Stabilization at low pH, Sypro orange fluorescence (Example 45); conditions: excipient 5 mg/mL, ustekinumab 1 mg/mL, glycine acidification buffer pH 2.6, Sypro orange fluorescence
ustekinumab [3] = assay: Urea denaturation, Sypro orange fluorescence (Example 44); format: physicochemical; conditions: excipient 5 mg/mL, ustekinumab 1 mg/mL, 6M urea, 20 mM histidine pH 6.0, Sypro orange fluorescence
Text: It is known that urea denatures proteins in solution and causes them to unfold. The screening methodology in this example involved adding a specific concentration of urea to a therapeutic protein solution such as ustekinumab. […] One method to track protein unfolding involves the use of extrinsic fluorescent dyes such as Sypro orange. Sypro orange binds to hydrophobic regions in the unfolded protein structure, leading to an increase in the fluorescence signal observed. Measuring the differences in the fluorescence intensity of unfolded protein-Sypro orange complex in presence of different excipients thus allows one to identify any stabilizing effects.
All excipients used in this Example, listed in Table 45 below, were of the highest purity, and were obtained from Sigma Aldrich (St. Louis, MO) or Cayman Chemical (Ann Arbor, MI). […] This urea stock solution was then added to a final concentration of 6M to produce the test solutions (excipient plus protein plus urea). […] The pH of the mixture was rechecked and confirmed to be at pH 6.0. The test solutions were allowed to incubate at room temperature for 30 min.

omalizumab [4] = assay: DLS viscosity of concentrated omalizumab (Example 53); format: physicochemical; set-up: key to DLS Viscosity, Replicate 1: observation on combining excipient with protein / DLS Viscosity, Replicate 2: observation on combining excipient with protein: * Combination of excipient with protein resulted in reversible precipitation; conditions: 20 mM HisHCl pH 6; for DLS Viscosity, Replicate 1 / DLS Viscosity, Replicate 2: concentrated omalizumab 9 parts : 1 part excipient stock (1 M or solubility limit)
Method: O-(octylphosphoryl)choline was purchased from Sigma Aldrich (St. […] O-(octylphosphoryl)choline was used as a stock excipient without additional preparation. […] In this example, the ratio of apparent radius to the actual radius of the gold nanoparticle was multiplied by the viscosity of water at 25° C. to calculate the viscosity of the protein formulation in centipoise (cP).

omalizumab [5] = assay: DLS viscosity of concentrated omalizumab (Example 54); format: physicochemical; conditions: concentrated omalizumab 9 parts : 1 part excipient stock (1 M or solubility limit), 20 mM HisHCl pH 6
Method: Hordenine HCl was purchased from Bulk Supplements (Henderson, NV).
The concentrated protein formulation was then combined with a stock excipient solution or a control at a ratio of 9 parts protein: 1 part excipient solution or buffer (for the control), and aliquots were added to the wells of a 384 well microplate (Aurora Microplates, Whitefish, MT). […] After the microplate was shaken, 2 microliters of a 5-fold dilution of polyethylene glycol surface-modified gold nanoparticles having a diameter of 100 nm (nanoComposix, San Diego, CA) in 20 mM His HCl were added to each sample well. […] In this example, the ratio of apparent radius to the actual radius of the gold nanoparticle was multiplied by the viscosity of water at 25° C. to calculate the viscosity of the protein formulation in centipoise (cP).

[6] = Caffeine solubility with co-solutes during refrigerated storage (Example 61); format: physicochemical; set-up: key: (PPT)—precipitate observed; (—)—clear solution observed; conditions: 50 mM co-solute, 25 mM histidine pH 6, stored 2 to 5° C.
Method: The resulting microplates were then sealed with microplate tape and stored in a refrigerator with the temperature maintained in the range of 2 to 5° C. Over the course of storage, the microplates were visually observed for evidence of precipitate in the well.

[7] = concentrated omalizumab 9 parts : 1 part excipient stock

SMILES: Cl.N=C(N)NCCC[C@H](N)C(=O)O [Arg HCl]
Monomer loss rate (infliximab; excipient 125 mM): 0.1186 % mon/min
Normalized monomer loss rate (infliximab; excipient 125 mM): 0.740

SMILES: N[C@@H](CC(=O)O)C(=O)O [Aspartic acid]
Normalized Viscosity [1]: 0.73

SMILES: O[C@H]1[C@H](O)[C@@H](O)CN2CC[C@H](O)[C@H]12 [Castanospermine]
% change in stability (ustekinumab [2]): 95.9%
% increased stability (ustekinumab [3]): 7.0%

SMILES: CC(O)(P(=O)(O)O)P(=O)(O)O [Etidronate]
Monomer loss rate (infliximab; excipient 25 mM): 0.0824 % mon/min
Normalized monomer loss rate (infliximab; excipient 25 mM): 0.514
Monomer loss rate (infliximab; excipient 50 mM): 0.0685 % mon/min
Normalized monomer loss rate (infliximab; excipient 50 mM): 0.428
Monomer loss rate (infliximab; excipient 100 mM): 0.0321 % mon/min and 0.0284 % mon/min
Normalized monomer loss rate (infliximab; excipient 100 mM): 0.200 and 0.177

SMILES: [Cl-].[Na+] [NaCl]
Monomer loss rate (infliximab; excipient 150 mM): 0.0727 % mon/min
Normalized monomer loss rate (infliximab; excipient 150 mM): 0.454

SMILES: NC[C@H]1O[C@H](O[C@H]2[C@H](O)[C@@H](O)[C@H](N)C[C@@H]2N)[C@H](N)[C@@H](O)[C@@H]1O [Neamine]
% change in stability (ustekinumab [2]): 5.9%
% increased stability (ustekinumab [3]): 2.8%

SMILES: OC[C@@H](O)[C@@H](O)[C@H](O)[C@@H](O)CO [Sorbitol]
Monomer loss rate (infliximab; excipient 200 mM): 0.0656 % mon/min
Normalized monomer loss rate (infliximab; excipient 200 mM): 0.409

SMILES: NCCCNCCCCNCCCN [Spermine]
% change in stability (ustekinumab [2]): 90.0%
% increased stability (ustekinumab [3]): 16.8%

Continued, values first:

% change in stability (ustekinumab [2]): 17.8%
% increased stability (ustekinumab [3]): 8.8%
SMILES: NCCSSCCN [Cystamine]

DLS Viscosity, Replicate 1: observation on combining excipient with protein (omalizumab [4]; [7]): *
DLS Viscosity, Replicate 2: observation on combining excipient with protein (omalizumab [4]; [7]): *
SMILES: CCN(CC)CCOC(=O)C1(C2CCCCC2)CCCCC1 [Dicyclomine HCl]

DLS Viscosity, Replicate 1 (omalizumab [5]): 40.5 cP
DLS Viscosity, Replicate 2 (omalizumab [5]): 74.0 cP
DLS Viscosity, Replicate 1 (omalizumab [4]): 16.8 cP
DLS Viscosity, Replicate 2 (omalizumab [4]): 15.6 cP
SMILES: CCCCn1ccnc1 [Excipient 1-butylimidazole, 1-butylimidazole]

DLS Viscosity, Replicate 1 (omalizumab [5]): 27.0 cP
DLS Viscosity, Replicate 2 (omalizumab [5]): 33.1 cP
DLS Viscosity, Replicate 1 (omalizumab [4]): 13.6 cP
DLS Viscosity, Replicate 2 (omalizumab [4]): 14.0 cP
SMILES: CCCCCCn1ccnc1 [Excipient 1-hexylimidazole, 1-hexylimidazole]

DLS Viscosity, Replicate 1 (omalizumab [4]): 15.9 cP
DLS Viscosity, Replicate 2 (omalizumab [4]): 17.4 cP
SMILES: O=S(=O)(O)CCN1CCN(CCO)CC1 [HEPES]

Day 1 (visual observation for precipitate) ([6]; caffeine 7.5 mg/mL): —
Day 7 (visual observation for precipitate) ([6]; caffeine 7.5 mg/mL): —
Day 18 (visual observation for precipitate) ([6]; caffeine 7.5 mg/mL): —
Day 27 (visual observation for precipitate) ([6]; caffeine 7.5 mg/mL): —
Day 56 (visual observation for precipitate) ([6]; caffeine 7.5 mg/mL): —
Day 1 (visual observation for precipitate) ([6]; caffeine 10 mg/mL): —
Day 7 (visual observation for precipitate) ([6]; caffeine 10 mg/mL): —
Day 18 (visual observation for precipitate) ([6]; caffeine 10 mg/mL): —
Day 27 (visual observation for precipitate) ([6]; caffeine 10 mg/mL): —
Day 56 (visual observation for precipitate) ([6]; caffeine 10 mg/mL): —
Day 1 (visual observation for precipitate) ([6]; caffeine 12.5 mg/mL): —
Day 7 (visual observation for precipitate) ([6]; caffeine 12.5 mg/mL): —
Day 18 (visual observation for precipitate) ([6]; caffeine 12.5 mg/mL): —
Day 27 (visual observation for precipitate) ([6]; caffeine 12.5 mg/mL): —
Day 56 (visual observation for precipitate) ([6]; caffeine 12.5 mg/mL): —
Day 1 (visual observation for precipitate) ([6]; caffeine 15 mg/mL): —
Day 7 (visual observation for precipitate) ([6]; caffeine 15 mg/mL): —
Day 18 (visual observation for precipitate) ([6]; caffeine 15 mg/mL): —
Day 27 (visual observation for precipitate) ([6]; caffeine 15 mg/mL): —
Day 56 (visual observation for precipitate) ([6]; caffeine 15 mg/mL): PPT
Day 1 (visual observation for precipitate) ([6]; caffeine 20 mg/mL): —
Day 7 (visual observation for precipitate) ([6]; caffeine 20 mg/mL): —
Day 18 (visual observation for precipitate) ([6]; caffeine 20 mg/mL): PPT
Day 27 (visual observation for precipitate) ([6]; caffeine 20 mg/mL): PPT
Day 56 (visual observation for precipitate) ([6]; caffeine 20 mg/mL): PPT
% increased stability (ustekinumab [3]): 2.7%
SMILES: NC(=O)c1cccnc1 [Nicotinamide]

DLS Viscosity, Replicate 1 (omalizumab [4]): 35.6 cP
DLS Viscosity, Replicate 2 (omalizumab [4]): 35.4 cP
SMILES: CCCCCCCCOP(=O)([O-])OCC[N+](C)(C)C [O-(octylphosphoryl)choline]

DLS Viscosity, Replicate 1 (omalizumab [4]): 45.5 cP
DLS Viscosity, Replicate 2 (omalizumab [4]): 36.2 cP
SMILES: OC(CCN1CCCCC1)(c1ccccc1)c1ccccc1 [Pridinol Methanesulfonate]

% change in stability (ustekinumab [2]): 98.1%
% increased stability (ustekinumab [3]): 12.9%
SMILES: NCCCCNCCCN [Spermidine]

% change in stability (ustekinumab [2]): 8.3%
% increased stability (ustekinumab [3]): 6.1%
SMILES: CCNC(=O)CC[C@H](N)C(=O)O [Theanine]
